Results from ChEMBL document CHEMBL1127981, “Novel ether derivatives of alkyl piperidines as potential sigma / 5HT2 antipsychotic agents” (Bioorg Med Chem Lett, 1994).

Assays:
[1] = molecular target: Serotonin 2 (5-HT2) receptor (Homo sapiens, UniProt P41595+P28223+P28335); test: Binding affinity towards 5-HT2 receptor using [3H]ketanserin as radioligand; type: protein assay
[2] = molecular target: Sigma non-opioid intracellular receptor 1 (Homo sapiens, UniProt Q99720); test: Binding affinity towards sigma receptor using [3H](+)-SKF-10047 as radioligand
Chain of Sigma non-opioid intracellular receptor 1 (Q99720 whole entry): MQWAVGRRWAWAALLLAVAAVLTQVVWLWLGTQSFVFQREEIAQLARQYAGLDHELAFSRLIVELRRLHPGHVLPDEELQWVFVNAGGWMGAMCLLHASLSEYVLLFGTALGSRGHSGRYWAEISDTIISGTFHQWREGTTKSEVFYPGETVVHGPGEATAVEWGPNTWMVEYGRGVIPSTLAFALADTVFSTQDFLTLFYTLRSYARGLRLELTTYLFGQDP

[3] = In vivo potency was determined in anti-mescaline scratch assay(peroral administration); type: functional, organism-based
D(2) dopamine receptor = D(2) dopamine receptor (Homo sapiens, UniProt P14416); test: Binding affinity towards Dopamine receptor D2 using [3H]spiperone as radioligand
Chain of D(2) dopamine receptor (P14416 whole entry): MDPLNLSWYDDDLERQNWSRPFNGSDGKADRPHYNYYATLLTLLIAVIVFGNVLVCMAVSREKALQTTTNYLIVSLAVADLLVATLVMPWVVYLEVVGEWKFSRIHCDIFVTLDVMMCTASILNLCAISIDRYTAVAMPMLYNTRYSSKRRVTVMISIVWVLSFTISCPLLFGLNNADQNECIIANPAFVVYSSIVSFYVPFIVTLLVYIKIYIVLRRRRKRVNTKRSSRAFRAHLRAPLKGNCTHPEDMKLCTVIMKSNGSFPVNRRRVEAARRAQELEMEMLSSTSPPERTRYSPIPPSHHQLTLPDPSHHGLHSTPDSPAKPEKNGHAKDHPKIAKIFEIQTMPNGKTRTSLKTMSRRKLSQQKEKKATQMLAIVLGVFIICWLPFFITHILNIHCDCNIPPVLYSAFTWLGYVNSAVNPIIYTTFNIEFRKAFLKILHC

| SMILES | Ki [1] [nM] | Ki [2] [nM] | ED50 [3] [mg/kg] | Ki (D(2) dopamine receptor) [nM] |
| --- | --- | --- | --- | --- |
| Fc1ccc(/C=C/COCC2CCN(Cc3ccccc3)CC2)cc1 | 31 | 12 | 8 | 2180 |
| C(#Cc1ccccc1)COCCC1CCN(CCc2ccccc2)CC1 | 21 | 7 | 4.1 | 131 |
| C(/C=C/c1ccccc1)=C\OCC1CCN(Cc2ccccc2)CC1 | 547 | 212 | – | > 10000 |
| Fc1ccc(CCN2CCC(CCOCC#Cc3ccccc3)CC2)cc1 | 85 | 18 | 3.6 | 1840 |
| C(#Cc1ccccc1)COC1CCN(CCc2ccccc2)CC1 | 72 | 4 | > 10 | 1360 |
| C(=C\c1ccccc1)/COCC1CCN(Cc2cccc3ccccc23)CC1 | 284 | 8 | > 10 | > 10000 |
| C(=C\c1ccccc1)/COCC1CCN(CC2CC2)CC1 | 1847 | 5 | > 30 | > 10000 |
| FC(F)(F)c1ccc(/C=C/COCC2CCN(Cc3ccccc3)CC2)cc1 | 324 | 28 | > 10 | 4320 |
| C(#Cc1ccccc1)COCC1CCN(Cc2ccccc2)CC1 | 254 | 4 | > 30 | > 10000 |
| Fc1ccc(C#CCOCCC2CCN(CCc3ccccc3)CC2)cc1 | 81 | 2 | > 10 | 1060 |
| C/C=C/CN1CCC(COC/C=C/c2ccccc2)CC1 | 650 | 8 | > 30 | > 10000 |
| c1ccc(CCCOCC2CCN(Cc3ccccc3)CC2)cc1 | 180 | 27 | > 30 | 554 |
| C(=C\c1ccccc1)/COCC1CCN(CCc2ccccc2)CC1 | 250 | 5 | > 5 | 241 |
| C(=C\c1ccccc1)/COCC1CCN(CCCc2ccccc2)CC1 | 283 | 18 | 9 | 948 |
| C(#Cc1ccccc1)COCCC1CCN(CC2CC2)CC1 | 947 | 1 | > 10 | > 10000 |
| C(=C/c1ccccc1)/COCC1CCN(Cc2ccccc2)CC1 | > 10000 | 90 | – | > 10000 |
| C(COCC1CCN(Cc2ccccc2)CC1)=C(c1ccccc1)c1ccccc1 | 29 | 22 | > 30 | 620 |
| C(=C\c1ccccc1)/COCC1CCN(Cc2ccccc2)CC1 | 44 | 7 | 6 | > 10000 |
